Read-outs that look alike come from different tables or passages of the source.
Legend:
Format in all cases: cell-based
Phospho-PRAS40(T246) = assay: Luminex multiplex assay, Phospho-PRAS40(T246)
Text: (§1) Determination of Phospho-GSK3β(S9), Phospho-PRAS40(T246) and Phospho-4E-BP1(T46) and the Effect of Compound 1 or Rapamycin.
(§2) The multiplex Luminex assay format differs from conventional enzyme-linked immunosorbent assay (ELISA) in that the multiplex capture antibody is attached to a polystyrene bead whereas the ELISA capture antibody is attached to the microplate well. The use of the suspension bead-based technology enables the multiplexing capabilities of the Luminex assays. The xMAP® technology uses 5.6 micron polystyrene microspheres, which are internally dyed with red and infrared fluorophores of differing intensities. Each bead is given a unique number, or bead region, allowing differentiation of one bead from another. Beads covalently bound to different specific antibodies can be mixed in the same assay, utilizing a 96-well microplate format. At the completion of the sandwich immunoassay, beads can be read, using the Luminex 100™ or Luminex 200 detection system, in single-file by dual lasers for classification and quantification of each analyte. The Akt-Pathway Phospho 5-plex kit used was custom made and includes the ability to simultaneously measure p-GSK3β (S9), p-PRAS40(T246), and p-4E-BP1(T46).
(§3) Cells were plated at the required density. The cells were treated with either Compound 1 or rapamycin over a range of concentrations for 1 hour in 5% CO2 at 37° C. Compound 1 and rapamycin were used at the same concentrations as for the proliferation assay. As for the cell proliferation assay, a reference standard was included in the assay for PC3 cells and the coefficient of variation for assay of p-GSK3β(S9) was 37.8% (n=30), p-PRAS40(T246) was 27.8% (n=30) and for p4E-BP1(T46) was 13.5% (n=4). For three cell lines (HCT-116, MDA-MB-231 and HT29) in the assay for phosphorylation of GSK3β, PRAS40 and 4E-BP1, IGF-I stimulation (500 ng/mL, recombinant human IGF-I) for the last 10 min of incubation was used. The media was aspirated from the wells and the plate was placed on ice. Then 35 μL of Lysis Buffer was added to each well and incubated on ice for at least 30 minutes. During the incubation, the standard curve for each phosphoprotein was prepared. The standards provided were reconstituted and serial dilutions were prepared according to the manufacturer's instructions. At the end of the cell lysis step, […] of the lysate was transferred to a V-bottom plate and spun at 4° C. at 2000 rpm for 5 minutes. Both the 1× Luminex bead and 1× detector antibody solutions were prepared during this time. The 1× bead solution was vortexed and 25 μL was added into each well of a black round bottom plate. Then 50 μL of the 1× detector antibody was added to each well. Fifty microliters (50 μL) of the prepared standards were added to the designated wells. Then 25 μL of the assay diluent was added to each well designated for the compound-treated cell lysates. At the end of the spin, 25 μL of cell lysate was added to the corresponding wells of the black assay plate. The assay plate was covered with the white plate lid and incubated for 3 hours at room temperature on an orbital shaker.
(§4) Approximately 10-15 minutes prior to the end of the first incubation, the secondary antibody solution was prepared according to the vendor's protocol. Goat anti-rabbit R-phycoerythrin red fluorescent protein (RPE) supplied as a 10× concentrate was diluted to generate a 1× goat anti-rabbit RPE stock. The 96-well filter plate was pre-wet with 200 μL of 1× Working wash solution. At the end of the 3 hour incubation, a multichannel pipette was used to transfer the entire contents from each assay well into the wells of the filter plate. The liquid from the wells was removed by aspiration with the vacuum manifold. Then 200 μL of 1× Working wash solution was added into each well. The wash solution was aspirated using the vacuum manifold after 15-30 seconds. This wash step was repeated one time. The bottom of the plate was blotted on clean paper towels to remove residual liquid. […]

p70S6K = assay: Luminex multiplex assay, p70S6K phosphorylation in cell lysates
Text: as §2, §3, §4

Phospho-GSK3β(S9) = assay: Luminex multiplex assay, Phospho-GSK3β(S9)
Text: as §1, §2, §3, §4

[1] = Homo sapiens, HCT-116, HCT116 cell line, IGF, read-out: Luminex PRAS40 (IGF)
[2] = Homo sapiens, U-87 MG, U87MG cell line, read-out: Luminex PRAS40
[3] = Homo sapiens, HCT-116, HCT116 cell line, IGF, read-out: Luminex p70S6K (IGF)
[4] = Homo sapiens, U-87 MG, U87MG cell line, read-out: Luminex p70S6K
[5] = Homo sapiens, HCT-116, HCT116 cell line, IGF, read-out: Luminex GSK-3β (IGF)
[6] = Homo sapiens, U-87 MG, U87MG cell line, read-out: Luminex GSK-3β
[7] = PC3 cell line, read-out: Luminex PRAS40
[8] = PC3 cell line, read-out: Luminex p70S6K
[9] = PC3 cell line, read-out: Luminex GSK-3β

| Structure (SMILES) | IC50 (Phospho-PRAS40(T246); [7]) [nM] | IC50 (p70S6K; [8]) [nM] | IC50 (Phospho-GSK3β(S9); [9]) [nM] | also measured |
| --- | --- | --- | --- | --- |
| CC(C)(O)c1ccc(-c2cnc3c(n2)N(CC2CCOCC2)CC(=O)N3)cn1 [A-1, 6-(6-(2-hydroxypropan-2-yl)pyridin-3-yl)-4-((tetrahydro-2H-pyran-4-yl)methyl)-3,4-dihydropyrazino[2,3-b]pyrazin-2(1H)-one] |  |  |  | IC50 (Phospho-PRAS40(T246); [1]): 2610 nM; IC50 (Phospho-PRAS40(T246); [2]): 1660 nM; IC50 (p70S6K; [3]): 2120 nM; IC50 (p70S6K; [4]): 526 nM; IC50 (Phospho-GSK3β(S9); [5]): 1740 nM; IC50 (Phospho-GSK3β(S9); [6]): 1220 nM |
| CCn1c(=O)[nH]c2ncc(-c3ccc(-c4nnc[nH]4)nc3C)nc21 [A-2, 1-ethyl-6-(2-methyl-6-(4H-1,2,4-triazol-3-yl)pyridin-3-yl)-1H-imidazo[4,5-b]pyrazin-2(3H)-one] |  |  |  | IC50 (p70S6K; [3]): 1240 nM; IC50 (p70S6K; [4]): 433 nM |
| CO[C@H]1CC[C@H](N2CC(=O)Nc3ncc(-c4ccc(C(C)(C)O)nc4)nc32)CC1 [A-3, 6-(6-(2-hydroxypropan-2-yl)pyridin-3-yl)-4-((1r,4r)-4-methoxycyclohexyl)-3,4-dihydropyrazino[2,3-b]pyrazin-2(1H)-one] |  |  |  | IC50 (Phospho-PRAS40(T246); HCT116 cell line, IGF, read-out: Luminex PRAS40 (IGF)): 1370 nM; IC50 (Phospho-PRAS40(T246); U87MG cell line, read-out: Luminex PRAS40): 1160 nM; IC50 (p70S6K; HCT116 cell line, IGF, read-out: Luminex p70S6K (IGF)): 1820 nM; IC50 (p70S6K; U87MG cell line, read-out: Luminex p70S6K): 435 nM; IC50 (Phospho-GSK3β(S9); HCT116 cell line, IGF, read-out: Luminex GSK-3β (IGF)): 1290 nM; IC50 (Phospho-GSK3β(S9); U87MG cell line, read-out: Luminex GSK-3β): 1470 nM |
| Cc1nc(-c2nnc[nH]2)ccc1-c1cnc2c(n1)N(CCC1CCOCC1)C(=O)CN2 [A-4, 7-(2-methyl-6-(4H-1,2,4-triazol-3-yl)pyridin-3-yl)-1-(2-(tetrahydro-2H-pyran-4-yl)ethyl)-3,4-dihydropyrazino[2,3-b]pyrazin-2(1H)-one] |  |  |  | IC50 (Phospho-PRAS40(T246); [1]): 120 nM; IC50 (Phospho-PRAS40(T246); [2]): 98 nM; IC50 (p70S6K; [3]): 96.6 nM; IC50 (p70S6K; [4]): 27.8 nM; IC50 (Phospho-GSK3β(S9); [5]): 96.2 nM; IC50 (Phospho-GSK3β(S9); [6]): 71 nM |
| COCCN1CC(=O)Nc2ncc(-c3ccc(-c4nnc[nH]4)nc3C)nc21 [A-5, 4-(2-methoxyethyl)-6-(2-methyl-6-(4H-1,2,4-triazol-3-yl)pyridin-3-yl)-3,4-dihydropyrazino[2,3-b]pyrazin-2(1H)-one] |  |  |  | IC50 (Phospho-PRAS40(T246); [1]): 762 nM; IC50 (Phospho-PRAS40(T246); [2]): 1090 nM; IC50 (p70S6K; [3]): 514 nM; IC50 (p70S6K; [4]): 104 nM; IC50 (Phospho-GSK3β(S9); [6]): 2160 nM |
| CC(C)(O)c1ccc(-c2cnc3c(n2)N(CC2CCOCC2)CC(=O)N3)cc1 [A-6, 6-(4-(2-hydroxypropan-2-yl)phenyl)-4-((tetrahydro-2H-pyran-4-yl)methyl)-3,4-dihydropyrazino[2,3-b]pyrazin-2(1H)-one] |  |  |  | IC50 (Phospho-PRAS40(T246); [1]): 492 nM; IC50 (Phospho-PRAS40(T246); [2]): 3240 nM; IC50 (p70S6K; [3]): 654 nM; IC50 (p70S6K; [4]): 162 nM; IC50 (Phospho-GSK3β(S9); [6]): 2470 nM |
| CCn1c(=O)[nH]c2ncc(-c3ccc(-c4nc[nH]n4)c(F)c3C)nc21 [A-7, 1-ethyl-6-(3-fluoro-2-methyl-4-(1H-1,2,4-triazol-3-yl)phenyl)-1H-imidazo[4,5-b]pyrazin-2(3H)-one] |  |  |  | IC50 (Phospho-PRAS40(T246); [1]): 1020 nM; IC50 (Phospho-PRAS40(T246); [2]): 2850 nM; IC50 (p70S6K; [3]): 470 nM; IC50 (p70S6K; [4]): 145 nM; IC50 (Phospho-GSK3β(S9); [6]): > 5000 nM |
| C[C@@H](O)c1ccc(-c2cnc3c(n2)N(CCC2CCOCC2)C(=O)CN3)cn1 [A-8, (R)-7-(6-(1-hydroxyethyl)pyridin-3-yl)-1-(2-(tetrahydro-2H-pyran-4-yl)ethyl)-3,4-dihydropyrazino[2,3-b]pyrazin-2(1H)-one] |  |  |  | IC50 (Phospho-PRAS40(T246); [1]): 160 nM; IC50 (Phospho-PRAS40(T246); [2]): 255 nM; IC50 (p70S6K; [3]): 91 nM; IC50 (p70S6K; [4]): 35.5 nM; IC50 (Phospho-GSK3β(S9); [6]): 402 nM |
| CC(C)(O)c1ccc(-c2cnc3[nH]c(=O)n(CC4CCCCC4)c3n2)cc1 [C-1] | > 1500 | 557 | > 1500 |  |
| CC(C)(O)c1ccc(-c2cnc3c(n2)N(CCC2CCOCC2)CC(=O)N3)cn1 [C-4] | 678 | 134 | 1110 |  |
| CC(C)(O)c1ccc(-c2cnc3c(n2)N(CC2CCOCC2)CC(=O)N3)cn1 [C-5] | 1750 | 156 | 964 |  |
| CO[C@H]1CC[C@H](N2CC(=O)Nc3ncc(-c4ccc(C(C)(C)O)nc4)nc32)CC1 [C-8] | 688 | 116 | 627 |  |
| COCCN1CC(=O)Nc2ncc(-c3ccc(-c4nnc[nH]4)nc3C)nc21 [C-10] | 624 |  | 1430 |  |
| CC(C)(O)c1ccc(-c2cnc3c(n2)N(CC2CCOCC2)CC(=O)N3)cc1 [C-11] | 754 | 201 | 1170 |  |
| Cc1cc(-c2nnc[nH]2)ccc1-c1cnc2c(n1)NC(=O)CN2 [C-35] |  | 815 |  |  |
| CCN1CC(=O)Nc2ncc(-c3ccc(-c4nnc[nH]4)nc3C)nc21 [C-45] | 1090 |  | 738 |  |
| COC1CCC(CN2C(=O)CNc3ncc(-c4ccc(-c5nc[nH]n5)nc4C)nc32)CC1 (stereo not shown) [C-46] | 144 |  | 218 |  |
| Cc1nc(-c2nnc[nH]2)ccc1-c1cnc2c(n1)N(C1CCOCC1)C(=O)CN2 [C-60] | 55 |  | 58 |  |
| Cc1nc(-c2nnc[nH]2)ccc1-c1cnc2c(n1)N(C1CCC(O)CC1)C(=O)CN2 (stereo not shown) [C-71] | 37 |  | 40 |  |
| Cc1nc(-c2nnc[nH]2)ccc1-c1cnc2c(n1)N(C1CCC(O)CC1)C(=O)CN2 (stereo not shown) [C-72] | 105 |  | 310 |  |

Second part, led by results:

| IC50 (Phospho-PRAS40(T246); [7]) [nM] | IC50 (p70S6K; [8]) [nM] | IC50 (Phospho-GSK3β(S9); [9]) [nM] | Structure (SMILES) | also measured |
| --- | --- | --- | --- | --- |
| 1300 | 247 | 2590 | CC(C)(O)c1ccc(-c2cnc3[nH]c(=O)n(CCC4CCOCC4)c3n2)cn1 [C-3] |  |
| 140 | 34 | 179 | CC(C)(O)c1ccc(-c2cnc3c(n2)N(CCC2CCOCC2)C(=O)CN3)cn1 [C-7] |  |
|  | 1 | 81 | COCCN1C(=O)CNc2ncc(-c3cnc(-c4nc[nH]n4)cc3C)nc21 [C-33] |  |
|  | 16 |  | CO[C@@H]1CC[C@H](CN2CC(=O)Nc3ncc(-c4ccc(-c5nnc[nH]5)nc4C)nc32)C1 [C-36] |  |
|  | 24 |  | CO[C@H]1CC[C@@H](CN2CC(=O)Nc3ncc(-c4ccc(-c5nnc[nH]5)nc4C)nc32)C1 [C-37] |  |
| 12 |  | 15 | CO[C@H]1CC[C@@H](CN2C(=O)CNc3ncc(-c4ccc(-c5nc[nH]n5)nc4C)nc32)CC1 [C-66] |  |
| 261 |  | 671 | Cc1nc(-c2nnc[nH]2)ccc1-c1cnc2c(n1)N(CCN1CCOCC1)C(=O)CN2 [C-73] |  |

Reference: US9557338B2 (SIGNAL PHARMACEUTICALS, LLC, priority 2012, dated 2017)
